Series [1] relates to CHRF line acute myeloid leukemia (AML) cells. In words: XTT growth inhibition of CHRF AML cells, 72 hours. It is filed as cell-based. To be noted: for Growth inhibition (%): 80 µM. The procedure:
Cells were grown in full culture medium for 24 hours. The medium was then removed and cells were washed with PBS. The PBS was then replaced by fresh medium containing different concentrations of SEM-011 in a range of 50 to 800 μM, or with SEM-011-free medium as a control. […] Growth inhibition was evaluated by calculating the percent decrease in absorbance in SEM-011-treated test cultures as compared to control cultures.
(In general: Tetrazolium dyes change colour on reduction, which living cells bring about.)

Series [2] deals with PC-3 prostate cancer cell line. Description: XTT growth inhibition of PC-3 cells, 24 hours. It is filed as cell-based, human. The procedure:
(§1) The compound SEM-011 was tested for anti-cancer activity, using the PC-3 prostate cancer cell line. Cells were grown in full culture medium for 24 hours. The medium was then removed and cells were washed with PBS. The PBS was then replaced by fresh medium containing different concentrations of SEM-011 in a range of 50 to 800 μM, or with SEM-011-free medium as a control. Cells were then cultured for 24 hours, after which time the level of cellular metabolism in the cultures was measured using a standard XTT (2,3-bis-(2-methoxy-4-nitro-5-sulfophenyl)-2H-tetrazolium-5-carboxanilide) assay. Growth inhibition was evaluated by calculating the percent decrease in absorbance in SEM-011-treated test cultures as compared to control cultures.

Another series deals with PC-3 cells. In words: Alamar Blue growth inhibition of PC-3 cells. The format is cell-based, human. Conditions: for IC50: read-out: Est IC50. The procedure: In additional sets of experiments. […] At the end of the culture period, the level of mitochondrial metabolism was measured (using Alamar Blue assay) and the activity of the chemiluminescent agents was determined by percents of growth inhibition; the inhibition of growth in treated cell cultures compared to non-treated, control cells.
A general note: Resazurin is reduced to fluorescent resorufin, in cell work by metabolically active cells.

A short description of series [3]: XTT growth inhibition IC50 in a panel of cancer cell lines, 72 hours. The format is cell-based. To be noted: span over all tested cell lines, FIG. 7, read-out: IC50 (concentration which resulted in 50% growth inhibition). The procedure:
as §1
(§2) The compounds SEM-007 (also referred to herein and in the art as “L-012”) and SEM-009 (also referred to in the art as “L-002”) were tested for anti-cancer activity using a variety of cell lines. The cell lines used were OvCar-3 ovarian cancer cells, SKOV-3 ovarian cancer cells, HepG2 liver cancer cells, PC-3 prostate cancer cells, and CHRF acute myeloid leukemia cells.

The subject of series [4] is OvCar-3 ovarian cancer cells, SKOV-3 ovarian cancer cells, HepG2 liver cancer cells, PC-3 prostate cancer cells, CHRF acute myeloid leukemia cells. The series is described as above. The format is cell-based. Conditions: all tested cell lines, FIG. 7. The procedure:
as §1, §2

Series [5] concerns PC-3 prostate cancer cells. In words: PC-3 prostate cancer tumors in nu/nu mice, tumor volume / Progression Index. It is filed as in vivo. The procedure: Tumor volumes were quantified (in cm^3) at the indicated times by using the formula: tumor volume=(width^2×length)/2. Tumor volume index or Progression Index refers to the ratio of a tumor volume at an indicated time to the first volume measured for that tumor.
Nu/nu nude mice were inoculated on their right flank with 2×10^6 PC-3 prostate cancer cells in a Matrigel mixture. Following inoculation, two mice were treated with escalating concentrations of L-012 (also referred to herein as “SEM-007”) by intraperitoneal injections twice per week, according to the following schedule:
As a control, two mice were inoculated with PC-3 cells without receiving L-012.
The volume of the tumor was then monitored.
The tumor volume was measured periodically beginning on day 25 post-inoculation, and the weight loss over the course of the experiment was also measured.
Each treatment group and each control group consisted of four (and sometimes five) mice.
In another set of experiments, Nu/nu male mice, 1.5-month old, were injected subcutaneously on the right flank with PC-3 cells (2.0×10^6 cells/mouse). On days 4, 8, 12, 15, 19, 36, 42 and […] (after the beginning of treatment), mice were treated with either vehicle (PBS) or 43 mg/Kg L012 by intraperitoneal injections. From the beginning of treatment, tumor dimensions were measured and tumor volume calculated. Progression Index was calculated as the ratio of tumor volume growth at a particular time point to the tumor volume at the initiation of treatment.
(§3) Control animals received an intraperitoneal injection of PBS.
The tumor volume was measured periodically beginning on day 35 post-inoculation.
Nu/nu male mice, 1.5-month old, were injected subcutaneously on the right flank with PC-3 cells (2.0×10^6 cells/mouse). On days 4, 8, 12, 15, 19, 36, 42 and 46 (after beginning of treatment), mice were treated with either vehicle (PBS) or 43 mg/Kg SEM 009, by intravenous injection, as indicated.
From the beginning of treatment, tumor dimensions were measured and tumor volume calculated. Progression Index was calculated as the ratio of tumor volume rowth at a particular time point to the tumor volume at the initiation of treatment.

The conditions of series [6]: for effect on decrease in body weight following inoculation with tumor cells: FIG. 5.
Excerpt: FIG. 5 is a bar graph showing the change in body weight of nu/nu mice 28 and 77 days after inoculation with PC-3 cells, following intraperitoneal injection of L-012 once per week (L012 l/w) or twice per week (L012 2/w) during days 35-56 after inoculation, and without L-012 administration (Control);
Nu/nu mice were inoculated with PC-3 cells as described in Example 1, and on day 35 post-inoculation, the animals were divided into three groups.
as §3
A second group received one weekly injection of 41.3 mg/kg L-012 for 3 weeks, i.e., on days 35, 42 and 49 post-inoculation. A third group received two weekly injections of 41.3 mg/kg L-012 for 3 weeks, i.e., on days 35, 36, 42, 47, 49 and 56.

Where [7] appears, read: Homo sapiens, PC-3, 200 uM, 24 hrs.
Where [8] appears, read: Homo sapiens, PC-3, 200 uM, 48 hrs.
Where [9] appears, read: Homo sapiens, PC-3, 200 uM, 72 hrs.
Setting [10] is: Homo sapiens, PC-3, 400 uM, 24 hrs.
The mark [11] stands for this setting: Homo sapiens, PC-3, 400 uM, 48 hrs.
The mark [12] stands for this setting: Homo sapiens, PC-3, 400 uM, 72 hrs.
Setting [13] is: Homo sapiens, PC-3, 800 uM, 24 hrs.
Where [14] appears, read: Homo sapiens, PC-3, 800 uM, 48 hrs.
Setting [15] is: Homo sapiens, PC-3, 800 uM, 72 hrs.

Like-named read-outs stand apart in the source and are kept apart here.

For MCLA, the “Growth inhibition (%)” value in series [1] worked out at 85%.

A word on the inhibition: it is the drop in the measured response relative to a control, in per cent. As for `NNc1nc(-c2ccccc2)c(O)c2c(=O)[nH][nH]c(=O)c12` [SEM-011, 5-hydrazinyl-8-hydroxy-7-phenyl-2,3-dihydropyrido[4,3-d]pyridazine-1,4-dione], the inhibition at 50 µM in series [2] (Homo sapiens, PC-3, 50 μM) stood at 50%. Besides, the inhibition at 100 µM in series [2] (Homo sapiens, PC-3, 100 μM) worked out at 87%. For the same molecule, the inhibition at 200 µM in series [2] (Homo sapiens, PC-3, 200 μM) is 96%. Besides, the inhibition at 400 µM in series [2] (Homo sapiens, PC-3, 400 μM) amounted to 96%. The inhibition at 800 µM in series [2] (Homo sapiens, PC-3, 800 μM) was 96%. Further, in series [2] (concentrations of 200 μM or more), the “PC-3 cell growth inhibition in words” value is on record as “almost completely inhibited PC-3 cell growth”.

`O=c1[nH][nH]c(=O)c2c(O)c(-c3ccc(Cl)cc3)ncc12` [SEM-014, 8-hydroxy-7-(4-chlorophenyl)-2,3-dihydropyrido[4,3-d]pyridazine-1,4-dione]: the results for the inhibition at 200 µM in the series with PC-3 cells (setting [7]), in the series with PC-3 cells (setting [8]) and with PC-3 cells (setting [9]) were 51.6%, 71.9% and 68.2%, respectively. Besides, the results for the inhibition at 400 µM in the series on PC-3 cells (setting [10]), in the series on PC-3 cells (setting [11]) and with PC-3 cells (setting [12]) were 55.7%, 70.5% and 72.7%, respectively. Moreover, the values for the inhibition at 800 µM with PC-3 cells (setting [13]), with PC-3 cells (setting [14]) and with PC-3 cells (setting [15]) were 54.3%, 71.3% and 76.1%, respectively.

In the case of `O=c1[nH][nH]c(=O)c2c(O)c(-c3ccccc3)ncc12` [SEM-009, 8-hydroxy-7-phenyl-2,3-dihydropyrido[4,3-d]pyridazine-1,4-dione], the IC50 was 40 to 200 µM in series [3]; 100 µM in the series with PC-3 cells (Homo sapiens, PC-3, 48 hrs); 110 µM in the series on PC-3 cells (Homo sapiens, PC-3, 73 hrs). Moreover, in series [4], the “IC50 compared with SEM-007” value is “lower than that of SEM-007 in all of the tested cell lines”. Besides, the inhibition at 50 µM with PC-3 cells (Homo sapiens, PC-3, 50 uM, 24 hrs) is -27.2%; with PC-3 cells (Homo sapiens, PC-3, 50 uM, 48 hrs) it was 26.6%; with PC-3 cells (Homo sapiens, PC-3, 50 uM, 73 hrs), 21.3%. Moreover, the inhibition at 100 µM in the series on PC-3 cells (Homo sapiens, PC-3, 100 uM, 24 hrs) came out at 81.4%; in the series on PC-3 cells (Homo sapiens, PC-3, 100 uM, 48 hrs), 49.2%; in the series with PC-3 cells (Homo sapiens, PC-3, 100 uM, 73 hrs), 47.8%. The inhibition at 200 µM in the series on PC-3 cells (setting [7]) was found to be 84.2%; with PC-3 cells (setting [8]) it was 80.3%; in the series on PC-3 cells (Homo sapiens, PC-3, 200 uM, 73 hrs) it was 80.5%. The inhibition at 400 µM in the series on PC-3 cells (setting [10]) was determined as 90.6%; in the series on PC-3 cells (setting [11]) it was 83.7%; in the series on PC-3 cells (Homo sapiens, PC-3, 400 uM, 73 hrs) it was 85.6%. For the same molecule, the inhibition at 800 µM in the series with PC-3 cells (setting [13]) came out at 89.1%; in the series with PC-3 cells (setting [14]), 85.7%; in the series on PC-3 cells (Homo sapiens, PC-3, 800 uM, 73 hrs) it was 89%. Moreover, the “Progression Index compared to non-treated mice” value in series [5] (43 mg/Kg SEM 009 by intravenous injection, FIG. 9) is “sharp decrease in the Progression Index”.

On to `Nc1c(-c2ccccc2)nc(Cl)c2c(=O)[nH][nH]c(=O)c12` [SEM-007, L-012], for which the “% growth inhibition” value in the series on PC-3 cells (25 uM, 48 hrs) is given as 27%; in the series on PC-3 cells (25 uM, 73 hrs) it was 11%; in the series on PC-3 cells (50 uM, 24 hrs) it was 46.46%; in the series on PC-3 cells (50 uM, 48 hrs), 31%; in the series with PC-3 cells (50 uM, 73 hrs) it was 20%; in the series on PC-3 cells (100 uM, 24 hrs) it was 65.25%. In addition, the “% growth inhibition” value with PC-3 cells (100 uM, 48 hrs) is 38%; with PC-3 cells (100 uM, 73 hrs) it was 38%; in the series on PC-3 cells (200 uM, 24 hrs), 66.84%; with PC-3 cells (200 uM, 48 hrs), 58%; with PC-3 cells (200 uM, 73 hrs) it was 58.0%; with PC-3 cells (400 uM, 24 hrs) it was 77.73%. In addition, the “% growth inhibition” value with PC-3 cells (400 uM, 48 hrs) came out at 70%; with PC-3 cells (400 uM, 73 hrs) it was 76%; in the series on PC-3 cells (800 uM, 24 hrs), 73.80%; with PC-3 cells (800 uM, 48 hrs) it was 78%; in the series with PC-3 cells (800 uM, 73 hrs), 90%. The IC50 with PC-3 cells (48 hrs) amounted to 160 µM; in the series with PC-3 cells (73 hrs), 140 µM. Moreover, the “systemic toxicity or morbidity in tumor-bearing mice” value in series [6] (41.3 mg/kg once or twice per week) is “does not result in systemic toxicity or morbidity”. The “effect on decrease in body weight following inoculation with tumor cells” value in series [6] (41.3 mg/kg once per week) was “partially inhibited the decrease in body weight”; in series [6] (41.3 mg/kg twice per week), “completely reversed the decrease in body weight”. The “reduction of tumor volume in comparison with the PBS-treated control” value in series [5] (41.3 mg/kg intraperitoneal on days 25, 28, 32, 35, at day 65, FIG. 3A) stood at 54%; in series [5] (41.3 mg/kg once per week for 3 weeks, at day 73, FIGS. 4A, 4B), 45%; in series [5] (41.3 mg/kg twice per week for 3 weeks, at day 73, FIGS. 4A, 4B) it was 95%. In series [5] (43 mg/Kg intraperitoneal, FIG. 3B), the “Progression Index compared to non-treated mice” value was “sharp increase in the Progression Index”. For the same molecule, the “average tumor volume progression after administration” value in series [5] (escalating L-012 41.3, 66.5, 100.4 mg/kg intraperitoneal on days 32, 39, 43, FIG. 2) was “halted tumor progression, with no increase in average tumor volume”. In series [5] (prostate cancer cells injected into mice, dose dependent), the “tumor volume reduction (summary of FIGS. 2-4B)” value is reported as “up to 95%”.

Take `O=c1[nH][nH]c(=O)c2c(O)c(-c3ccccc3Cl)ncc12` [SEM-013, 8-hydroxy-7-(2-chlorophenyl)-2,3-dihydropyrido[4,3-d]pyridazine-1,4-dione]: the inhibition at 200 µM with PC-3 cells (setting [7]) was 23.8%; in the series on PC-3 cells (setting [8]), 22.3%; with PC-3 cells (setting [9]) it was 23.1%. Further, the values for the inhibition at 400 µM in the series with PC-3 cells (setting [10]), in the series on PC-3 cells (setting [11]) and in the series with PC-3 cells (setting [12]) were 30.1%, 29.1% and 41.7%, respectively. Further, the inhibition at 800 µM amounted to 37.1% in the series on PC-3 cells (setting [13]), 55.5% with PC-3 cells (setting [14]) and 64.2% with PC-3 cells (setting [15]).

Regarding `Nc1cccc2c(=O)[nH][nH]c(=O)c12` [Luminol], the inhibition at 80 µM in series [1] (72 h, read-out: Growth inhibition (%)) was found to be 40%.

For `C[n+]1c2ccccc2c(-c2c3ccccc3[n+](C)c3ccccc23)c2ccccc21` [Lucigenin], the “Growth inhibition (%)” value in series [1] is listed as 33%.
